In patent publication US20250188092A1, “RIFAMYCIN ANALOGS” (THE REGENTS OF THE UNIVERSITY OF MICHIGAN, priority 2021, published 2025):
Like-named read-outs stand apart in the source and are kept apart here.

Tested on: non-replicating cultures of M. tuberculosis H37Rv transformed with lux ABCDE
Assay: microbe, parasite or virus in culture
Type: cell-based, Mycobacterium tuberculosis
Conditions: for MIC90 / MIC: ≥90% reduction in luminescence, read-out: MIC90 LORA; for MIC90 LORA/MABA: ratio of LORA MIC90 to MABA MIC90
[1] = Mycobacterium tuberculosis, H37RV

Row | SMILES | MIC90 LORA Rel to RMP | MIC90 [µM] | MIC [1] [µM] | MIC90 LORA/MABA | MIC90 [1] [µM]
1 | CO[C@H]1/C=C/O[C@@]2(C)Oc3c(C)c(O)c4c(=O)c(c5oc6cc(C)cc(N7CCN(C)CC7)c6nc-5c4c3C2=O)NC(=O)/C(C)=C\C=C\[C@H](C)[C@H](O)[C@@H](C)[C@@H](O)[C@@H](C)[C@H](OC(C)=O)[C@@H]1C [Compound 30a, (7S,9E,11S,12R,13S,14R,15R,16R,17S,18S,19E,21Z)-2,15,17-Trihydroxy-11-methoxy-3,7,12,14,16,18,22,30-octamethyl-32-(4-methylpiperazin-1-yl)-6,23,37-trioxo-8,27,38-trioxa-24,34-diazahexacyclo[23.11.1.1^4,7.0^5,36.0^26,35.0^28,33]octatriaconta-1(36)2,4,9,19,21,25,28,30,32,34-undecaen-13-yl acetate] | <0.06 | <0.016 | – | – | –
2 | CO[C@H]1/C=C/O[C@@]2(C)Oc3c(C)c(O)c4c(=O)c(c5oc6cccc(OCCCCN7CCOCC7)c6nc-5c4c3C2=O)NC(=O)/C(C)=C\C=C\[C@H](C)[C@H](O)[C@@H](C)[C@@H](O)[C@@H](C)[C@H](OC(C)=O)[C@@H]1C [Compound 5b, (7S,9E,11S,12R,13S,14R,15R,16R,17S,18S,19E,21Z)-2,15,17-Trihydroxy-11-methoxy-3,7,12,14,16,18,22-heptamethyl-32-[4-(morpholin-4-yl)butoxy]-6,23,37-trioxo-8,27,38-trioxa-24,34-diazahexacyclo[23.11.1.1^4,7.0^5,36.0^26,35.0^28,33]octatriaconta-1(36)2,4,9,19,21,25,28(33)29,31,34-undecaen-13-yl acetate] | 0.15 | – | 0.05 | 2.4 | –
3 | CO[C@H]1/C=C/O[C@@]2(C)Oc3c(C)c(O)c4c(=O)c(c5oc6cc(C=Nc7ccc(N8CCOCC8)cc7)cc(N7CCN(C)CC7)c6nc-5c4c3C2=O)NC(=O)/C(C)=C\C=C\[C@H](C)[C@H](O)[C@@H](C)[C@@H](O)[C@@H](C)[C@H](OC(C)=O)[C@@H]1C [Compound 32, (7S,9E,11S,12R,13S,14R,15R,16R,17S,18S,19E,21Z)-2,15,17-trihydroxy-11-methoxy-3,7,12,14,16,18,22-heptamethyl-32-(4-methylpiperazin-1-yl)-30-{N-[4-(morpholin-4-yl)phenyl]carboximidoyl}-6,23,37-trioxo-8,27,38-trioxa-24,34-diazahexacyclo[23.11.1.1^4,7.0^5,36.0^26,35.0^28,33]octatriaconta-1,3,5(36)9,19,21,25,28,30,32,34-undecaen-13-yl acetate] | 0.45 | – | – | 2.5 | 0.118
4 | CO[C@H]1/C=C/O[C@@]2(C)Oc3c(C)c(O)c4c(=O)c(c5oc6cccc(OCc7cccc(CN8CCN(C(C)=O)CC8)c7)c6nc-5c4c3C2=O)NC(=O)/C(C)=C\C=C\[C@H](C)[C@H](O)[C@@H](C)[C@@H](O)[C@@H](C)[C@H](OC(C)=O)[C@@H]1C [Compound 11c, (7S,9E,11S,12R,13S,14R,15R,16R,17S,18S,19E,21Z)-32-({3-[(4-Acetylpiperazin-1-yl)methyl]phenyl}methoxy)-2,15,17-trihydroxy-11-methoxy-3,7,12,14,16,18,22-heptamethyl-6,23,37-trioxo-8,27,38-trioxa-24,34-diazahexacyclo-[23.11.1.1^4,7.0^5,36.0^26,35.0^28,33]octatriaconta-1(36)2,4,9,19,21,25,28,30,32,34-undecaen-13-yl acetate] | 0.53 | – | – | 2.1 | 0.123
5 | CO[C@H]1/C=C/O[C@@]2(C)Oc3c(C)c(O)c4c(=O)c(c5oc6cc(N7CCN(CC(C)C)CC7)cc(OCc7ccc(CN8CCNCC8)cc7)c6nc-5c4c3C2=O)NC(=O)/C(C)=C\C=C\[C@H](C)[C@H](O)[C@@H](C)[C@@H](O)[C@@H](C)[C@H](OC(C)=O)[C@@H]1C [Compound 17b, (7S,9E,11S,12R,13S,14R,15R,16R,17S,18S,19E,21Z)-2,15,17-Trihydroxy-11-methoxy-3,7,12,14,16,18,22-heptamethyl-30-[4-(2-methylpropyl)piperazin-1-yl]-6,23,37-trioxo-32-({4-[(piperazin-1-yl)methyl]phenyl}methoxy)-8,27,38-trioxa-24,34-diazahexacyclo[23.11.1.1^4,7.0^5,36.0^26,35.0^28,33]octatriaconta-1(36)2,4,9,19,21,25,28,30,32,34-undecaen-13-yl acetate] | 1.3 | – | < 0.016 | – | –
6 | CO[C@H]1/C=C/O[C@@]2(C)Oc3c(C)c(O)c4c(=O)c(c5oc6cccc(OCc7cccc(CN8CCN(C(=O)Cn9ccnc9)CC8)c7)c6nc-5c4c3C2=O)NC(=O)/C(C)=C\C=C\[C@H](C)[C@H](O)[C@@H](C)[C@@H](O)[C@@H](C)[C@H](OC(C)=O)[C@@H]1C [Compound 11e, (7S,9E,11S,12R,13S,14R,15R,16R,17S,18S,19E,21Z)-2,15,17-Trihydroxy-32-{[3-({4-[2-(1H-imidazol-1-yl)acetyl]piperazin-1-yl}methyl)phenyl]methoxy}-11-methoxy-3,7,12,14,16,18,22-heptamethyl-6,23,37-trioxo-8,27,38-trioxa-24,34-diazahexacyclo[23.11.1.1^4,7.0^5,36.0^26,35.0^28,33]octatriaconta-1(36)2,4,9,19,21,25,28,30,32,34-undecaen-13-yl acetate] | 0.26 | – | 0.078 | 1.6 | –
7 | CO[C@H]1/C=C/O[C@@]2(C)Oc3c(C)c(O)c4c(=O)c(c5oc6cc(N7CCN(CC(C)C)CC7)cc(OCCCCN7CCN(C(=O)Cn8ccnc8)CC7)c6nc-5c4c3C2=O)NC(=O)/C(C)=C\C=C\[C@H](C)[C@H](O)[C@@H](C)[C@@H](O)[C@@H](C)[C@H](OC(C)=O)[C@@H]1C [Compound 6d, (7S,9E,11S,12R,13S,14R,15R,16R,17S,18S,19E,21Z)-2,15,17-Trihydroxy-32-(4-{4-[2-(1H-imidazol-1-yl)acetyl]piperazin-1-yl}butoxy)-11-methoxy-3,7,12,14,16,18,22-heptamethyl-30-[4-(2-methylpropyl)piperazin-1-yl]-6,23,37-trioxo-8,27,38-trioxa-24,34-diazahexacyclo[23.11.1.1^4,7.0^5,36.0^26,35.0^28,33]octatriaconta-1(36)2,4,9,19,21,25,28,30,32,34-undecaen-13-yl acetate] | 0.06 | – | 0.058 | 2.4 | –
8 | CO[C@H]1/C=C/O[C@@]2(C)Oc3c(C)c(O)c4c(=O)c(c5oc6cc(C=O)cc(N7CCN(CC(C)C)CC7)c6nc-5c4c3C2=O)NC(=O)/C(C)=C\C=C\[C@H](C)[C@H](O)[C@@H](C)[C@@H](O)[C@@H](C)[C@H](OC(C)=O)[C@@H]1C [Compound 30d, (7S,9E,11S,12R,13S,14R,15R,16R,17S,1S,19E,21Z)-30-Formyl-2,15,17-trihydroxy-11-methoxy-3,7,12,14,16,18,22-heptamethyl-32-[4-(2-methylpropyl)piperazin-1-yl]-6,23,37-trioxo-8,27,38-trioxa-24,34-diazahexacyclo[23.11.1.1^4,7.0^5,36.0^26,35.0^28,33]octatriaconta-1(36)2,4,9,19,21,25,28,30,32,34-undecaen-13-yl acetate] | 0.07 | 0.017 | – | – | –
